Measured values: US6645918B1, “N-([1,2,4]triazoloazinyl)thiophenesulfonamide compounds and their use as herbicides” (Dow AgroSciences LLC, priority 2000, dated 2003)

Assays:
Type in all cases: in vivo
[1] = tested on: giant foxtail (Setaria faberi); assay: Preemergence herbicidal activity, giant foxtail; conditions: soil spray, visual after 3 weeks, 0 no injury, 100 complete kill or no germination
Experimental: (§1) The soil matrix was contained in plastic pots with a surface area of 161 square centimeters. When required to ensure good germination and healthy plants, a fungicide treatment and/or other chemical or physical treatment was applied. A weighed amount, determined by the highest rate to be tested, of each test compound was placed in a 20 mL glass vial and was dissolved in 8 mL of a 97:3 v/v (volume/volume) mixture of acetone and dimethyl sulfoxide to obtain concentrated stock solutions. […] The stock solutions obtained were diluted with a 99.9:0.1 mixture of water and Tween® 155 surfactant (ethoxylated sorbitan fatty acid ester) to obtain application solutions of known concentration. The solutions containing the highest concentration to be tested were prepared by diluting 4 mL aliquots of the stock solution with 8.5 mL of the mixture and lower concentrations were prepared by dilution of appropriate smaller portions of the stock solution. A 2.5 mL aliquot of each solution of known concentration was sprayed evenly onto the soil of each seeded pot using a Cornwall 5.0 mL glass syringe fitted with a TeeJet TN-3 hollow cone nozzle to obtain thorough coverage of the soil in each pot. Control pots were sprayed in the same manner with the aqueous mixture. A highest application rate of 4.48 kg/ha is achieved when 50 mg of test compound is employed. The treated pots and control pots were placed in a greenhouse with an approximately 15 hr photoperiod which was maintained at about 23-29° C. during the day and 22-28° C. during the night. Nutrients and water were added on a regular basis and supplemental lighting was provided with overhead metal halide 1000 Watt lamps as necessary. The water was added by top-irrigation. After 3 weeks the condition of the test plants that germinated and grew as compared with that of the untreated plants that germinated and grew was determined visually and scored on a scale of 0 to 100 percent where 0 corresponds to no injury and 100 corresponds to complete kill or no germination.

[2] = tested on: crabgrass (Digitaria sanguinalis); assay: Preemergence herbicidal activity, crabgrass; conditions: soil spray, visual after 3 weeks, 0 no injury, 100 complete kill or no germination
Experimental: as §1

[3] = tested on: velvetleaf (Abutilion theophrasti); assay: Postemergence herbicidal activity, velvetleaf; conditions: foliar spray, visual after 2 weeks, 0 no injury, 100 complete kill
Experimental: (§2) Seeds of the desired test plant species were planted in Grace-Sierra MetroMix® 306 planting mixture, which typically has a pH of 6.0 to 6.8 and an organic matter content of about 30 percent, in plastic pots with a surface area of 64 square centimeters. When required to ensure good germination and healthy plants, a fungicide treatment and/or other chemical or physical treatment was applied. The plants were grown for 7-21 days in a greenhouse with an approximately 15 hr photoperiod which was maintained at about 23-29° C. during the day and 22-28° C. during the night. Nutrients and water were added on a regular basis and supplemental lighting was provided with overhead metal halide 1000 Watt lamps as necessary. The plants were employed for testing when they reached the first or second true leaf stage. A weighed amount of each test compound, determined by the highest rate to be tested, was placed in a 20 mL glass vial and was dissolved in 4 mL of a 97:3 v/v (volume/volume) mixture of acetone and dimethyl sulfoxide to obtain concentrated stock solutions. […] The concentrated stock solutions obtained were diluted with an aqueous mixture containing acetone, water, iso-propyl alcohol, dimethyl sulfoxide, Atplus 411F crop oil concentrate, and Triton X-155 surfactant (methylenebisdiamyl phenoxy polyethoxy ethanol) in a 48.5:39:10:1.5:1.0:0.02 v/v ratio to obtain spray solutions of known concentration. The solutions containing the highest concentration to be tested were prepared by diluting 2 mL aliquots of the stock solution with 13 mL of the mixture and lower concentrations were prepared by dilution of appropriate smaller portions of the stock solution. Approximately 1.5 mL aliquots of each solution of known concentration were sprayed evenly onto each of the test plant pots using a DeVilbiss atomizer driven by compressed air pressure of 2 to 4 psi (140 to 280 kilopascals) to obtain thorough coverage of each plant. Control plants were sprayed in the same manner with the aqueous mixture. In this test an application rate of 1 ppm results in the application of approximately 1 g/ha. The treated plants and control plants were placed in a greenhouse as described above and watered by sub-irrigation to prevent wash-off of the test compounds. After 2 weeks the condition of the test plants as compared with that of the untreated plants was determined visually and scored on a scale of 0 to 100 percent where 0 corresponds to no injury and 100 corresponds to complete kill.

[4] = tested on: Rox orange sorghum (Sorghum bicolor); assay: Postemergence herbicidal activity, Rox orange sorghum; conditions: foliar spray, visual after 2 weeks, 0 no injury, 100 complete kill
Experimental: as §2

wild oats (Avena fatua) [5] = assay: Preemergence herbicidal activity, wild oats; conditions: soil spray, visual after 3 weeks, 0 no injury, 100 complete kill or no germination
Experimental: as §1

[6] = tested on: chickweed (Stellaria media); assay: Postemergence herbicidal activity, chickweed; conditions: foliar spray, visual after 2 weeks, 0 no injury, 100 complete kill
Experimental: as §2

[7] = tested on: Rox orange sorghum (Sorghum bicolor); assay: Preemergence herbicidal activity, Rox orange sorghum; conditions: soil spray, visual after 3 weeks, 0 no injury, 100 complete kill or no germination
Experimental: as §1

[8] = tested on: velvetleaf (Abutilion theophrasti); assay: Preemergence herbicidal activity, velvetleaf; conditions: soil spray, visual after 3 weeks, 0 no injury, 100 complete kill or no germination
Experimental: as §1

wild oats (Avena fatua) [9] = assay: Postemergence herbicidal activity, wild oats; conditions: foliar spray, visual after 2 weeks, 0 no injury, 100 complete kill
Experimental: as §2

[10] = tested on: morningglory (Ipomoea hederacea); assay: Postemergence herbicidal activity, morningglory; conditions: foliar spray, visual after 2 weeks, 0 no injury, 100 complete kill
Experimental: as §2

[11] = tested on: cocklebur (Xanthium strumarium); assay: Preemergence herbicidal activity, cocklebur; conditions: soil spray, visual after 3 weeks, 0 no injury, 100 complete kill or no germination
Experimental: as §1

[12] = tested on: cocklebur (Xanthium strumarium); assay: Postemergence herbicidal activity, cocklebur; conditions: foliar spray, visual after 2 weeks, 0 no injury, 100 complete kill
Experimental: as §2

[13] = tested on: pigweed (Amaranthus retroflexus); assay: Preemergence herbicidal activity, pigweed; conditions: soil spray, visual after 3 weeks, 0 no injury, 100 complete kill or no germination
Experimental: as §1

[14] = tested on: giant foxtail (Setaria faberi); assay: Postemergence herbicidal activity, giant foxtail; conditions: foliar spray, visual after 2 weeks, 0 no injury, 100 complete kill
Experimental: as §2

[15] = tested on: blackgrass (Alopecurus myosuroides); assay: Preemergence herbicidal activity, blackgrass; conditions: soil spray, visual after 3 weeks, 0 no injury, 100 complete kill or no germination
Experimental: as §1

[16] = tested on: wild poinsettia (Euphorbia heterophylla); assay: Preemergence herbicidal activity, wild poinsettia; conditions: soil spray, visual after 3 weeks, 0 no injury, 100 complete kill or no germination
Experimental: as §1

[17] = tested on: lambsquarters (Chenopodium album); assay: Postemergence herbicidal activity, lambsquarters; conditions: foliar spray, visual after 2 weeks, 0 no injury, 100 complete kill
Experimental: as §2

[18] = tested on: morningglory (Ipomoea hederacea); assay: Preemergence herbicidal activity, morningglory; conditions: soil spray, visual after 3 weeks, 0 no injury, 100 complete kill or no germination
Experimental: as §1

[19] = tested on: blackgrass (Alopecurus myosuroides); assay: Postemergence herbicidal activity, blackgrass; conditions: foliar spray, visual after 2 weeks, 0 no injury, 100 complete kill
Experimental: as §2

[20] = tested on: barnyardgrass (Echinochloa crus-galli); assay: Preemergence herbicidal activity, barnyardgrass; conditions: soil spray, visual after 3 weeks, 0 no injury, 100 complete kill or no germination
Experimental: as §1

viola (Viola tricolor) = assay: Postemergence herbicidal activity, viola; conditions: foliar spray, visual after 2 weeks, 0 no injury, 100 complete kill
Experimental: as §2

[21] = tested on: lambsquarters (Chenopodium album); assay: Preemergence herbicidal activity, lambsquarters; conditions: 8.8 g/Ha, soil spray, visual after 3 weeks; 0 no injury, 100 complete kill or no germination
Experimental: as §1

COc1sccc1S(=O)(=O)Nc1nc2c(C)cnc(OC)n2n1 [Compound 9]
SETFA preemergence injury score 0-100 ([1]; 70 g/Ha): 15%
DIGSA preemergence injury score 0-100 ([2]; 70 g/Ha): 10%
ABUTH postemergence injury score 0-100 ([3]; 62 ppm): 70%
SORBI postemergence injury score 0-100 ([4]; 62 ppm): 70%
AVEFA preemergence injury score 0-100 (wild oats (Avena fatua) [5]; 70 g/Ha): 30%
STEME postemergence injury score 0-100 ([6]; 62 ppm): 95%
SORBI preemergence injury score 0-100 ([7]; 70 g/Ha): 50%
ABUTH preemergence injury score 0-100 ([8]; 70 g/Ha): 30%
AVEFA postemergence injury score 0-100 (wild oats (Avena fatua) [9]; 62 ppm): 10%
IPOHE postemergence injury score 0-100 ([10]; 62 ppm): 70%
XANST preemergence injury score 0-100 ([11]; 70 g/Ha): 25%
XANST postemergence injury score 0-100 ([12]; 62 ppm): 60%
AMARE preemergence injury score 0-100 ([13]; 70 g/Ha): 40%
SETFA postemergence injury score 0-100 ([14]; 62 ppm): 20%
ALOMY preemergence injury score 0-100 ([15]; 70 g/Ha): 100%
EPHHL preemergence injury score 0-100 ([16]; 70 g/Ha): 10%
CHEAL postemergence injury score 0-100 ([17]; 62 ppm): 40%
IPOHE preemergence injury score 0-100 ([18]; 70 g/Ha): 10%
ALOMY postemergence injury score 0-100 ([19]; 62 ppm): 60%
ECHCG preemergence injury score 0-100 ([20]; 70 g/Ha): 0%
VIOTR postemergence injury score 0-100 (viola (Viola tricolor); 62 ppm): 60%

COc1sccc1S(=O)(=O)Nc1nc2c(OC)cnc(OC)n2n1 [Compound 8]
SETFA preemergence injury score 0-100 ([1]; 8.8 g/Ha): 60%
DIGSA preemergence injury score 0-100 ([2]; 8.8 g/Ha): 50%
ABUTH postemergence injury score 0-100 ([3]; 7.8 ppm): 75%
SORBI postemergence injury score 0-100 ([4]; 7.8 ppm): 95%
AVEFA preemergence injury score 0-100 (wild oats (Avena fatua) [5]; 8.8 g/Ha): 80%
STEME postemergence injury score 0-100 ([6]; 7.8 ppm): 95%
SORBI preemergence injury score 0-100 ([7]; 8.8 g/Ha): 70%
ABUTH preemergence injury score 0-100 ([8]; 8.8 g/Ha): 70%
AVEFA postemergence injury score 0-100 (wild oats (Avena fatua) [9]; 7.8 ppm): 85%
IPOHE postemergence injury score 0-100 ([10]; 7.8 ppm): 60%
XANST preemergence injury score 0-100 ([11]; 8.8 g/Ha): 80%
XANST postemergence injury score 0-100 ([12]; 7.8 ppm): 60%
AMARE preemergence injury score 0-100 ([13]; 8.8 g/Ha): 80%
SETFA postemergence injury score 0-100 ([14]; 7.8 ppm): 60%
ALOMY preemergence injury score 0-100 ([15]; 8.8 g/Ha): 85%
EPHHL preemergence injury score 0-100 ([16]; 8.8 g/Ha): 85%
CHEAL postemergence injury score 0-100 ([17]; 7.8 ppm): 70%
IPOHE preemergence injury score 0-100 ([18]; 8.8 g/Ha): 75%
CHEAL preemergence injury score 0-100 [21]: 70%
ALOMY postemergence injury score 0-100 ([19]; 7.8 ppm): 50%
ECHCG preemergence injury score 0-100 ([20]; 8.8 g/Ha): 25%
VIOTR postemergence injury score 0-100 (viola (Viola tricolor); 7.8 ppm): 75%

COc1cscc1S(=O)(=O)Nc1nc2c(OC)cnc(OC)n2n1 [Compound 7, N-(5,8-dimethoxy[1,2,4]triazolo[1,5-c]pyrimidin-2-yl)-4-methoxythiophene-3-sulfonamide]
SETFA preemergence injury score 0-100 ([1]; 4.4 g/Ha): 100%
DIGSA preemergence injury score 0-100 ([2]; 4.4 g/Ha): 100%
ABUTH postemergence injury score 0-100 ([3]; 1.9 ppm): 80%
SORBI postemergence injury score 0-100 ([4]; 1.9 ppm): 98%
AVEFA preemergence injury score 0-100 (wild oats (Avena fatua) [5]; 4.4 g/Ha): 100%
STEME postemergence injury score 0-100 ([6]; 1.9 ppm): 98%
SORBI preemergence injury score 0-100 ([7]; 4.4 g/Ha): 100%
ABUTH preemergence injury score 0-100 ([8]; 4.4 g/Ha): 95%
AVEFA postemergence injury score 0-100 (wild oats (Avena fatua) [9]; 1.9 ppm): 98%
IPOHE postemergence injury score 0-100 ([10]; 1.9 ppm): 80%
XANST preemergence injury score 0-100 ([11]; 4.4 g/Ha): 80%
XANST postemergence injury score 0-100 ([12]; 1.9 ppm): 80%
AMARE preemergence injury score 0-100 ([13]; 4.4 g/Ha): 95%
SETFA postemergence injury score 0-100 ([14]; 1.9 ppm): 100%
ALOMY preemergence injury score 0-100 ([15]; 4.4 g/Ha): 100%
EPHHL preemergence injury score 0-100 ([16]; 4.4 g/Ha): 85%
CHEAL postemergence injury score 0-100 ([17]; 1.9 ppm): 60%
IPOHE preemergence injury score 0-100 ([18]; 4.4 g/Ha): 85%
ALOMY postemergence injury score 0-100 ([19]; 1.9 ppm): 98%
ECHCG preemergence injury score 0-100 ([20]; 4.4 g/Ha): 99%
VIOTR postemergence injury score 0-100 (viola (Viola tricolor); 1.9 ppm): 80%
